Data taken from ChEMBL document CHEMBL1201862, “PubChem BioAssay data set” (2004).
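All cell lines were grown in 96-well plates and treated with compound for 48 hours. GI50: concentration for 50% inhibition of growth.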 Calls of active or inactive are those of the source. Rule as the data show it: active = GI50 up to about 1.1 µM and inactive = higher.

Experiments:
Assay in all cases: inhibition of tumour cell growth, NCI panel, 48 h
HCT-116 = system: HCT-116
DU-145 = system: DU-145
LOX IMVI = system: LOX IMVI
UO-31 = system: UO-31
OVCAR-8 = system: OVCAR-8
MDA-MB-435 = system: MDA-MB-435
NCI-H460 = system: NCI-H460
KM12 = system: KM12
OVCAR-5 = system: OVCAR-5
SW-620 = system: SW-620
SK-MEL-28 = system: SK-MEL-28
M14 = system: M14
SF-295 = system: SF-295
UACC-62 = system: UACC-62
A549 = system: A549
T47D = system: T47D
HOP-92 = system: HOP-92
SF-268 = system: SF-268
NCI/ADR-RES = system: NCI/ADR-RES
MDA-MB-231 = system: MDA-MB-231

| Compound | GI50 (HCT-116) | GI50 (DU-145) | GI50 (LOX IMVI) | GI50 (UO-31) | GI50 (OVCAR-8) | GI50 (MDA-MB-435) | GI50 (NCI-H460) | GI50 (KM12) | GI50 (OVCAR-5) | GI50 (SW-620) | GI50 (SK-MEL-28) | GI50 (M14) | GI50 (SF-295) | GI50 (UACC-62) | GI50 (A549) | GI50 (T47D) | GI50 (HOP-92) | GI50 (SF-268) | GI50 (NCI/ADR-RES) | GI50 (MDA-MB-231) |
| --- | --- | --- | --- | --- | --- | --- | --- | --- | --- | --- | --- | --- | --- | --- | --- | --- | --- | --- | --- | --- |
| C[C@H](NC(=O)c1ccc(CNC(=O)/C=C/c2cccc(Oc3ccccc3)c2)cc1)c1ccccc1 | > 100 µM (inactive) | > 100 µM (inactive) | > 100 µM (inactive) | 46.1 µM (inactive) | > 100 µM (inactive) | > 100 µM (inactive) | > 100 µM (inactive) | > 100 µM (inactive) | > 100 µM (inactive) | > 100 µM (inactive) | 80.9 µM (inactive) | > 100 µM (inactive) | 40.8 µM (inactive) | > 100 µM (inactive) | 55.8 µM (inactive) | 98.2 µM (inactive) | > 100 µM (inactive) | > 100 µM (inactive) | > 100 µM (inactive) | > 100 µM (inactive) |
| CCOC(=O)C(Cc1cccn1C(=O)OC(C)(C)C)[N+](=O)[O-] (centres undefined) | 20.9 µM (inactive) | 26.9 µM (inactive) | 17.5 µM (inactive) | 21.2 µM (inactive) | 31.7 µM (inactive) | 26.6 µM (inactive) | 24.3 µM (inactive) | 22.8 µM (inactive) | 23.8 µM (inactive) | 23.8 µM (inactive) | 27.4 µM (inactive) | 19.2 µM (inactive) | 30.6 µM (inactive) | 21.5 µM (inactive) | 32 µM (inactive) | 33.4 µM (inactive) | 28.2 µM (inactive) | 33.9 µM (inactive) | 44.7 µM (inactive) | 19 µM (inactive) |
| Cc1c(CCCl)c(=O)n2c([nH]c3ccccc32)c1C#N | 0.614 µM (active) | 2.21 µM (inactive) | 0.619 µM (active) | 1.91 µM (inactive) | 1.6 µM (inactive) | 1.83 µM (inactive) | 1.72 µM (inactive) | 1.75 µM (inactive) | 2.33 µM (inactive) | 0.973 µM (active) | 1.87 µM (inactive) | 1.6 µM (inactive) | 1.66 µM (inactive) | 1.34 µM (inactive) | 1.78 µM (inactive) | 1.51 µM (inactive) | 1.5 µM (inactive) | 1.95 µM (inactive) | 1.27 µM (inactive) | 1.52 µM (inactive) |
| CCc1c[n+]([O-])c(C)cc1[N+](=O)[O-] | 26.3 µM (inactive) | 28 µM (inactive) | > 100 µM (inactive) | > 100 µM (inactive) | 46.2 µM (inactive) | 57.9 µM (inactive) | 20.7 µM (inactive) | 45.4 µM (inactive) | > 100 µM (inactive) | 33.3 µM (inactive) | > 100 µM (inactive) | 40.2 µM (inactive) | > 100 µM (inactive) | 49.9 µM (inactive) | 56.1 µM (inactive) | > 100 µM (inactive) | 35.8 µM (inactive) | > 100 µM (inactive) | > 100 µM (inactive) | 22.8 µM (inactive) |
| Cc1ccc(/N=N/C(=NNC(=O)c2ccc(C)cc2)c2ccc(N(C)C)cc2)cc1 | 24.2 µM (inactive) | 20.8 µM (inactive) | 33.4 µM (inactive) | 26.1 µM (inactive) | 31.8 µM (inactive) | 16.6 µM (inactive) | 25.3 µM (inactive) | 16.9 µM (inactive) | 51.8 µM (inactive) | 32.2 µM (inactive) | 36 µM (inactive) | 24.8 µM (inactive) | 26.4 µM (inactive) | 10.8 µM (inactive) | 28.6 µM (inactive) | 71.3 µM (inactive) | 28.6 µM (inactive) | 38.5 µM (inactive) | 41.3 µM (inactive) | 50.2 µM (inactive) |
| CC1(C)C=C(/C=N/Nc2ccc([N+](=O)[O-])cc2)C(C#N)=C(O)C1(C#N)C#N | > 100 µM (inactive) | > 100 µM (inactive) | > 100 µM (inactive) | > 100 µM (inactive) | > 100 µM (inactive) | > 100 µM (inactive) | > 100 µM (inactive) | > 100 µM (inactive) | > 100 µM (inactive) | > 100 µM (inactive) | > 100 µM (inactive) | > 100 µM (inactive) | > 100 µM (inactive) | > 100 µM (inactive) | > 100 µM (inactive) | > 100 µM (inactive) | > 100 µM (inactive) | > 100 µM (inactive) | > 100 µM (inactive) | > 100 µM (inactive) |
| CN(C)Cc1c[nH]c2ncnc(O)c12 | 22.4 µM (inactive) | 26.4 µM (inactive) | 19 µM (inactive) | 62.2 µM (inactive) | 29 µM (inactive) | 31.8 µM (inactive) | 26.2 µM (inactive) | > 100 µM (inactive) | > 100 µM (inactive) | 27.2 µM (inactive) | 46.1 µM (inactive) | 41.2 µM (inactive) | > 100 µM (inactive) | 20.9 µM (inactive) | 86.5 µM (inactive) | 33.1 µM (inactive) | 38.9 µM (inactive) | 73.1 µM (inactive) | 62.7 µM (inactive) | 72.4 µM (inactive) |
| CCOC(=O)Oc1cc2c(c(OC)c1OC)-c1ccc(SC)c(=O)cc1C(NC(=O)C(F)(F)F)CC2 (centres undefined) | < 0.001 µM (active) | 0.00258 µM (active) | 0.00177 µM (active) | 0.244 µM (active) | 0.0015 µM (active) | < 0.001 µM (active) | 0.00199 µM (active) | 0.00258 µM (active) | 0.1 µM (active) | < 0.001 µM (active) | < 0.001 µM (active) | < 0.001 µM (active) | < 0.001 µM (active) | 0.00108 µM (active) | 0.00555 µM (active) | 8.97 µM (inactive) | 0.00604 µM (active) | 0.00196 µM (active) | 0.0102 µM (active) | 0.00172 µM (active) |
| O=C1CSC(c2cccc(Cl)c2)N1c1ccc(-n2c(-c3ccccc3)nc3ccccc3c2=O)cc1 (centres undefined) | 53 µM (inactive) | > 100 µM (inactive) | 46.2 µM (inactive) | 3.22 µM (inactive) | 79.8 µM (inactive) | 45.8 µM (inactive) | 39.1 µM (inactive) | 21.3 µM (inactive) | > 100 µM (inactive) | > 100 µM (inactive) | > 100 µM (inactive) | – | > 100 µM (inactive) | 21.4 µM (inactive) | > 100 µM (inactive) | 10 µM (inactive) | 2.69 µM (inactive) | 8.07 µM (inactive) | 25.5 µM (inactive) | 21.1 µM (inactive) |
| CC1(C)CC(=O)C2=C(C1)OC1=C(CC(C)(C)CC1=O)C2c1ccccc1Cl (centres undefined) | > 100 µM (inactive) | > 100 µM (inactive) | > 100 µM (inactive) | 1.94 µM (inactive) | > 100 µM (inactive) | > 100 µM (inactive) | > 100 µM (inactive) | – | > 100 µM (inactive) | > 100 µM (inactive) | > 100 µM (inactive) | > 100 µM (inactive) | > 100 µM (inactive) | > 100 µM (inactive) | > 100 µM (inactive) | > 100 µM (inactive) | > 100 µM (inactive) | > 100 µM (inactive) | > 100 µM (inactive) | 89.7 µM (inactive) |
| O=[As](O)(O)c1ccc(NCc2ccccc2)cc1 | > 100 µM (inactive) | > 100 µM (inactive) | > 100 µM (inactive) | > 100 µM (inactive) | > 100 µM (inactive) | > 100 µM (inactive) | > 100 µM (inactive) | > 100 µM (inactive) | > 100 µM (inactive) | – | > 100 µM (inactive) | > 100 µM (inactive) | > 100 µM (inactive) | > 100 µM (inactive) | > 100 µM (inactive) | > 100 µM (inactive) | > 100 µM (inactive) | > 100 µM (inactive) | > 100 µM (inactive) | > 100 µM (inactive) |
| CCOP(=O)(OCC)/C(C#N)=C/c1nccn1C | > 100 µM (inactive) | > 100 µM (inactive) | > 100 µM (inactive) | > 100 µM (inactive) | > 100 µM (inactive) | > 100 µM (inactive) | > 100 µM (inactive) | > 100 µM (inactive) | > 100 µM (inactive) | > 100 µM (inactive) | > 100 µM (inactive) | > 100 µM (inactive) | > 100 µM (inactive) | – | > 100 µM (inactive) | > 100 µM (inactive) | 63 µM (inactive) | > 100 µM (inactive) | > 100 µM (inactive) | > 100 µM (inactive) |
| NC(CSC1c2ccccc2-c2ccccc21)C(=O)O (centres undefined) | > 100 µM (inactive) | > 100 µM (inactive) | > 100 µM (inactive) | > 100 µM (inactive) | > 100 µM (inactive) | > 100 µM (inactive) | > 100 µM (inactive) | > 100 µM (inactive) | > 100 µM (inactive) | > 100 µM (inactive) | > 100 µM (inactive) | > 100 µM (inactive) | > 100 µM (inactive) | > 100 µM (inactive) | > 100 µM (inactive) | > 100 µM (inactive) | > 100 µM (inactive) | – | > 100 µM (inactive) | > 100 µM (inactive) |
| O=C(O)c1c2c(cc3c1CC1(Cc4ccccc4C1)C3)CCC2 | > 10 µM (inactive) | 66.5 µM (inactive) | 24.8 µM (inactive) | 30.3 µM (inactive) | 63.1 µM (inactive) | > 100 µM (inactive) | 25.9 µM (inactive) | 59.3 µM (inactive) | > 100 µM (inactive) | > 100 µM (inactive) | > 100 µM (inactive) | – | > 100 µM (inactive) | > 100 µM (inactive) | 35.6 µM (inactive) | 77.1 µM (inactive) | 14.9 µM (inactive) | > 100 µM (inactive) | 35.4 µM (inactive) | 95.7 µM (inactive) |
